# Results from patent US20230114728A1 (Venatorx Pharmaceuticals, Inc., priority 2019, published 2023).
# How the values were obtained:
# [1] = Bocillin-FL fluorescence polarization competition binding assay, A. baumannii PBP3; conditions: fluorescence polarization competition binding assay using Bocillin-FL; column 3; read-out: 4. baumannii PBP1a Potency
# Outline: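 Fluorescence polarization (ex 490/em 520 nm) competition of inhibitors against Bocillin-FL at 0.1 μM, read up to 60 min. Final PBP levels: E. coli PBP3 1.5 μM; A. baumannii PBP2 2.5 μM, PBP3 0.2 μM in Tris pH 8.0/NaCl/glycerol/Tween 20; N. gonorrhoeae PBP2 […] in Hepes pH 8.0/NaCl/glycerol. EC50 = concentration halving PBP-bound Bocillin-FL.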
# P. aeruginosa PBP3 = target: T1, P. aeruginosa PBP3 (Pseudomonas aeruginosa, UniProt G3XD46); assay: Bocillin-FL fluorescence polarization competition binding assay, P. aeruginosa PBP3; conditions: fluorescence polarization competition binding assay using Bocillin-FL
# T1 construct: made in house
# T1 sequence (G3XD46 whole entry): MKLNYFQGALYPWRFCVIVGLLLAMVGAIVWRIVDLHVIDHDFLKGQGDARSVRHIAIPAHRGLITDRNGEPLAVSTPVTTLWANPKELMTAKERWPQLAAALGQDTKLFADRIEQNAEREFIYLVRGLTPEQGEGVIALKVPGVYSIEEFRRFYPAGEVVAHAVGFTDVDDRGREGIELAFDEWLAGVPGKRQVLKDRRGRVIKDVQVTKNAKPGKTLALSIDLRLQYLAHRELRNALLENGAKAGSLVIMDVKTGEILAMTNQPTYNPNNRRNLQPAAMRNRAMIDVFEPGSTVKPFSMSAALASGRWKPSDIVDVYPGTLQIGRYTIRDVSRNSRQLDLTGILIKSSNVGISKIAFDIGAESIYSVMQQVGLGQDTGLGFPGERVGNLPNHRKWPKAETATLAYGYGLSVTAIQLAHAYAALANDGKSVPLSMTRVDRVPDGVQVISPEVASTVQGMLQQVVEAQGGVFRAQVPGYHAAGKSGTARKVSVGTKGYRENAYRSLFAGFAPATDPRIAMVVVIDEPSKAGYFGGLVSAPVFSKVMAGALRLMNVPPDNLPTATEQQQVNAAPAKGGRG
# Outline: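 Binding of boronic acid inhibitors to purified Pseudomonas aeruginosa (PA01) PBP3 was measured by fluorescence polarization competition with Bocillin-FL, a fluorescent penicillin V. Reactions of 80 μl contained 0.75 μM PBP3 and 0.1 μM Bocillin-FL in 50 mM Hepes (pH 8.0), 300 mM NaCl and 5% (v/v) glycerol, in black 384-well plates. FP (Excitation 490 nm, Emission 520 nm) was read for up to 60 minutes. EC50 is the concentration that halves PBP-bound Bocillin-FL.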
# N. gonorrhoeae WHO Q = assay: Liquid broth MIC in Fastidious broth; assay type: cell-based; conditions: Neisseria gonorrhoeae, read-out: Minimum Inhibitory Concentration, N. gonorrhoeae WHO Q
# Outline: (§1)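 Broth microdilution against gonococcal strains expressing mosaic PBP2, starting inoculum 5×10^5 CFU/mL in Fastidious broth. Incubation runs ~24 h at 36 °C under 5% CO2, with MIC scored visually at <10% of full growth.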
# N. gonorrhoeae WHO Z = assay: Liquid broth MIC in Fastidious broth; assay type: cell-based; conditions: Neisseria gonorrhoeae, read-out: Minimum Inhibitory Concentration, N. gonorrhoeae WHO Z
# Outline: as §1
compound,measurement,setting,value
"NCCCN1CCN(C(=O)NC(C(=O)N[C@H]2Cc3cccc(C(=O)O)c3OB2O)c2ccc(C(=O)O)cc2)C(=O)C1=O (stereo partly drawn) [Example 39, (3R)-3-(2-(4-(3-aminopropyl)-2,3-dioxopiperazine-1-carboxamido)-2-(4-carboxyphenyl)acetamido)-2-hydroxy-3,4-dihydro-2H-benzo[e][1,2]oxaborinine-8-carboxylic acid]",EC50,[1],30 to 100 µM
same,P. aeruginosa PBP3 Potency,P. aeruginosa PBP3,D (D represents a potency <10 μM)
"O=C(O)c1c(F)ccc2c1OB(O)[C@@H](NC(=O)[C@H](NC(=O)N1CCNC1=O)c1c(F)cc(O)c(O)c1Cl)C2 (single isomer, unassigned) [Example 34]",EC50,[1],> 100 µM
same,P. aeruginosa PBP3 Potency,P. aeruginosa PBP3,D (D represents a potency <10 μM)
"CS(=O)(=O)N1CCN(C(=O)NC(C(=O)N[C@H]2Cc3ccc(F)c(C(=O)O)c3OB2O)c2ccc(O)c(O)c2Cl)C1=O (stereo partly drawn) [Example 23, (3R)-3-(2-(2-chloro-3,4-dihydroxyphenyl)-2-(3-(methylsulfonyl)-2-oxoimidazolidine-1-carboxamido)acetamido)-7-fluoro-2-hydroxy-3,4-dihydro-2H-benzo[e][1,2]oxaborinine-8-carboxylic acid]",EC50,[1],30 to 100 µM
same,P. aeruginosa PBP3 Potency,P. aeruginosa PBP3,D (D represents a potency <10 μM)
"N=C(N)NCCN1CCN(C(=O)NC(C(=O)N[C@H]2Cc3ccc(F)c(C(=O)O)c3OB2O)c2ccc(C(=O)O)c(F)c2)C(=O)C1=O (stereo partly drawn) [Example 78, (3R)-3-(2-(4-carboxy-3-fluorophenyl)-2-(4-(2-guanidinoethyl)-2,3-dioxopiperazine-1-carboxamido)acetamido)-7-fluoro-2-hydroxy-3,4-dihydro-2H-benzo[e][1,2]oxaborinine-8-carboxylic acid]",P. aeruginosa PBP3 Potency,P. aeruginosa PBP3,D (D represents a potency <10 μM)
same,MIC,N. gonorrhoeae WHO Q,> 64 µg/mL
same,MIC,N. gonorrhoeae WHO Z,16 to 32 µg/mL
"NCCN1CCN(C(=O)NC(C(=O)N[C@H]2Cc3cccc(C(=O)O)c3OB2O)c2cc(F)c(O)cc2F)C(=O)C1=O (stereo partly drawn) [Example 93, (3R)-3-(2-(4-(2-aminoethyl)-2,3-dioxopiperazine-1-carboxamido)-2-(2,5-difluoro-4-hydroxyphenyl)acetamido)-2-hydroxy-3,4-dihydro-2H-benzo[e][1,2]oxaborinine-8-carboxylic acid]",P. aeruginosa PBP3 Potency,P. aeruginosa PBP3,D (D represents a potency <10 μM)
same,MIC,N. gonorrhoeae WHO Q,> 64 µg/mL
same,MIC,N. gonorrhoeae WHO Z,> 64 µg/mL
"NCCN1CCN(C(=O)N[C@H](C(=O)N[C@H]2Cc3cccc(C(=O)O)c3OB2O)c2ccc(O)cc2F)C(=O)C1=O (single isomer, unassigned) [Example 88]",P. aeruginosa PBP3 Potency,P. aeruginosa PBP3,C (C represents a potency between 10 and 30 μM)
same,MIC,N. gonorrhoeae WHO Q,> 64 µg/mL
same,MIC,N. gonorrhoeae WHO Z,> 64 µg/mL
"NCCN1CCN(C(=O)NC(C(=O)N[C@H]2Cc3cccc(C(=O)O)c3OB2O)c2cc(Cl)c(O)cc2F)C(=O)C1=O (stereo partly drawn) [Example 87, (3R)-3-(2-(4-(2-aminoethyl)-2,3-dioxopiperazine-1-carboxamido)-2-(5-chloro-2-fluoro-4-hydroxyphenyl)acetamido)-2-hydroxy-3,4-dihydro-2H-benzo[e][1,2]oxaborinine-8-carboxylic acid]",P. aeruginosa PBP3 Potency,P. aeruginosa PBP3,D (D represents a potency <10 μM)
same,MIC,N. gonorrhoeae WHO Q,> 64 µg/mL
same,MIC,N. gonorrhoeae WHO Z,> 64 µg/mL
"CCN1CCN(C(=O)NC(C(=O)N[C@H]2Cc3cccc(C(=O)O)c3OB2O)c2cccc(NC(=O)c3cncnc3)c2)C(=O)C1=O (stereo partly drawn) [Example 96, (3R)-3-(2-(4-ethyl-2,3-dioxopiperazine-1-carboxamido)-2-(3-(pyrimidine-5-carboxamido)phenyl)acetamido)-2-hydroxy-3,4-dihydro-2H-benzo[e][1,2]oxaborinine-8-carboxylic acid]",P. aeruginosa PBP3 Potency,P. aeruginosa PBP3,D (D represents a potency <10 μM)
same,MIC,N. gonorrhoeae WHO Q,> 64 µg/mL
same,MIC,N. gonorrhoeae WHO Z,> 64 µg/mL
"CCN1CCN(C(=O)NC(C(=O)N[C@H]2Cc3cccc(C(=O)O)c3OB2O)c2ccc(C(=O)O)c(OC)c2)C(=O)C1=O (stereo partly drawn) [Example 48, (3R)-3-(2-(4-carboxy-3-methoxyphenyl)-2-(4-ethyl-2,3-dioxopiperazine-1-carboxamido)acetamido)-2-hydroxy-3,4-dihydro-2H-benzo[e][1,2]oxaborinine-8-carboxylic acid]",P. aeruginosa PBP3 Potency,P. aeruginosa PBP3,D (D represents a potency <10 μM)
same,MIC,N. gonorrhoeae WHO Q,4 to 8 µg/mL
same,MIC,N. gonorrhoeae WHO Z,1 to 2 µg/mL
"CCN1CCN(C(=O)NC(C(=O)N[C@H]2Cc3cccc(C(=O)O)c3OB2O)c2ccc(O)cc2OC)C(=O)C1=O (stereo partly drawn) [Example 70, (3R)-3-(2-(4-ethyl-2,3-dioxopiperazine-1-carboxamido)-2-(4-hydroxy-2-methoxyphenyl)acetamido)-2-hydroxy-3,4-dihydro-2H-benzo[e][1,2]oxaborinine-8-carboxylic acid]",P. aeruginosa PBP3 Potency,P. aeruginosa PBP3,D (D represents a potency <10 μM)
same,MIC,N. gonorrhoeae WHO Q,> 64 µg/mL
same,MIC,N. gonorrhoeae WHO Z,> 64 µg/mL
"CCN1CCN(C(=O)N[C@@H](C(=O)N[C@H]2Cc3cccc(C(=O)O)c3OB2O)c2cc(O)cc(O)c2)C(=O)C1=O (single isomer, unassigned) [Example 82]",P. aeruginosa PBP3 Potency,P. aeruginosa PBP3,D (D represents a potency <10 μM)
same,MIC,N. gonorrhoeae WHO Q,4 to 8 µg/mL
same,MIC,N. gonorrhoeae WHO Z,4 to 8 µg/mL
"CCN1CCN(C(=O)NC(C(=O)N[C@H]2Cc3cccc(C(=O)O)c3OB2O)c2cccc([N+](=O)[O-])c2)C(=O)C1=O (stereo partly drawn) [Example 75, (3R)-3-(2-(4-ethyl-2,3-dioxopiperazine-1-carboxamido)-2-(3-nitrophenyl)acetamido)-2-hydroxy-3,4-dihydro-2H-benzo[e][1,2]oxaborinine-8-carboxylic acid]",P. aeruginosa PBP3 Potency,P. aeruginosa PBP3,D (D represents a potency <10 μM)
same,MIC,N. gonorrhoeae WHO Q,16 to 32 µg/mL
same,MIC,N. gonorrhoeae WHO Z,16 to 32 µg/mL
"O=C(O)c1c(F)ccc2c1OB(O)[C@@H](NC(=O)C(NC(=O)N1CCN(CCBr)C(=O)C1=O)c1c(F)cc(O)c(O)c1F)C2 (stereo partly drawn) [Example 38, (3R)-3-(2-(4-(2-bromoethyl)-2,3-dioxopiperazine-1-carboxamido)-2-(2,6-difluoro-3,4-dihydroxyphenyl)acetamido)-7-fluoro-2-hydroxy-3,4-dihydro-2H-benzo[e][1,2]oxaborinine-8-carboxylic acid]",EC50,[1],10 to 30 µM
"CCN1CCN(C(=O)NC(C(=O)N[C@H]2Cc3cccc(C(=O)O)c3OB2O)c2cccc(S(N)(=O)=O)c2)C(=O)C1=O (stereo partly drawn) [Example 99, (3R)-3-(2-(4-ethyl-2,3-dioxopiperazine-1-carboxamido)-2-(3-sulfamoylphenyl)acetamido)-2-hydroxy-3,4-dihydro-2H-benzo[e][1,2]oxaborinine-8-carboxylic acid]",P. aeruginosa PBP3 Potency,P. aeruginosa PBP3,D (D represents a potency <10 μM)
same,MIC,N. gonorrhoeae WHO Q,16 to 32 µg/mL
same,MIC,N. gonorrhoeae WHO Z,16 to 32 µg/mL
"CCN1CCN(C(=O)NC(C(=O)N[C@H]2Cc3cccc(C(=O)O)c3OB2O)c2cccc(O)c2)C(=O)C1=O (stereo partly drawn) [Example 68, (3R)-3-(2-(4-ethyl-2,3-dioxopiperazine-1-carboxamido)-2-(3-hydroxyphenyl)acetamido)-2-hydroxy-3,4-dihydro-2H-benzo[e][1,2]oxaborinine-8-carboxylic acid]",P. aeruginosa PBP3 Potency,P. aeruginosa PBP3,D (D represents a potency <10 μM)
same,MIC,N. gonorrhoeae WHO Q,> 64 µg/mL
same,MIC,N. gonorrhoeae WHO Z,16 to 32 µg/mL
"CCN1CCN(C(=O)NC(C(=O)N[C@H]2Cc3ccc(CO)c(C(=O)O)c3OB2O)c2csc(N)n2)C(O)C1=O (stereo partly drawn) [Example 58, (3R)-3-(2-(2-aminothiazol-4-yl)-2-(4-ethyl-2-hydroxy-3-oxopiperazine-1-carboxamido)acetamido)-2-hydroxy-7-(hydroxymethyl)-3,4-dihydro-2H-benzo[el][1,2]oxaborinine-8-carboxylic acid]",P. aeruginosa PBP3 Potency,P. aeruginosa PBP3,B (B represents a potency between 30 μM and 500 μM inclusive)
same,MIC,N. gonorrhoeae WHO Q,> 64 µg/mL
same,MIC,N. gonorrhoeae WHO Z,> 64 µg/mL
"NCCN1CCN(C(=O)N[C@@H](C(=O)N[C@H]2Cc3cccc(C(=O)O)c3OB2O)c2ccc(O)cc2F)C(=O)C1=O (single isomer, unassigned) [Example 89]",P. aeruginosa PBP3 Potency,P. aeruginosa PBP3,D (D represents a potency <10 μM)
same,MIC,N. gonorrhoeae WHO Q,> 64 µg/mL
same,MIC,N. gonorrhoeae WHO Z,> 64 µg/mL
"CCN1CCN(C(=O)NC(C(=O)N[C@H]2Cc3cccc(C(=O)O)c3OB2O)c2ccc(C(N)=O)c(O)c2)C(=O)C1=O (stereo partly drawn) [Example 45, (3R)-3-(2-(4-carbamoyl-3-hydroxyphenyl)-2-(4-ethyl-2,3-dioxopiperazine-1-carboxamido)acetamido)-2-hydroxy-3,4-dihydro-2H-benzo[e][1,2]oxaborinine-8-carboxylic acid]",P. aeruginosa PBP3 Potency,P. aeruginosa PBP3,D (D represents a potency <10 μM)
same,MIC,N. gonorrhoeae WHO Q,16 to 32 µg/mL
same,MIC,N. gonorrhoeae WHO Z,16 to 32 µg/mL
"CCN1CCN(C(=O)NC(C(=O)N[C@H]2Cc3ccc(OCCN)c(C(=O)O)c3OB2O)c2ccccc2)C(=O)C1=O (stereo partly drawn) [Example 60, (3R)-7-(2-aminoethoxy)-3-(2-(4-ethyl-2,3-dioxopiperazine-1-carboxamido)-2-phenylacetamido)-2-hydroxy-3,4-dihydro-2H-benzo[e][1,2]oxaborinine-8-carboxylic acid]",P. aeruginosa PBP3 Potency,P. aeruginosa PBP3,C (C represents a potency between 10 and 30 μM)
same,MIC,N. gonorrhoeae WHO Q,> 64 µg/mL
same,MIC,N. gonorrhoeae WHO Z,> 64 µg/mL
